Measurements as given in patent US20200197335A1, “CANCER THERAPEUTIC” (priority 2017, published 2020).
Where two headings read alike, the source gives them in different places.

Tests used:
[1] = cited from earlier work
[2] = tested on: several tumoral cell lines; conditions: cited from earlier work
[3] = tested on: Stage IV Adenocarcinoma of Lung; assay: Treatment of Patient X with Stage IV adenocarcinoma of lung, followed by repeat PET CT; type: in vivo, human
Description: Commenced RAS modulation: • Aspirin: 300mg once daily • Start Date: 20 Jun. 2015
2015 • + Cilazapril: 2.5 mg once daily • Start Date: 26 Nov. 2015
2015 • + Doxycycline: 100mg once daily • Start Date: 20 Feb. 2016

[4] = piperine included in the curcumin formulation; cited from earlier work
Squamous Cell Carcinoma = conditions: propranolol 160 mg daily with curcumin and celebrex, five weeks; reduced to 40 mg daily

## Cc1ccc(-c2cc(C(F)(F)F)nn2-c2ccc(S(N)(=O)=O)cc2)cc1 [Celecoxib, 4-[5-(4-methylphenyl)-3-(trifluoromethyl)pyrazol-1-yl]benzenesulfonamide]
[1]; listed as common
  Diarrhoea, frequency: 4-10%
  Headache, frequency: 10-15%
  Hypertension, frequency: 2-12%
  Nausea, frequency: 3-7%
[1]; listed as serious
  Gastrointestinal haemorrhage, frequency: less than 0.1%
  Gastrointestinal perforation, frequency: less than 0.1%
  Thrombosis, frequency: 1.2%

## [Pt(dmba)(aza-N1)(dmso)] complex 1
[2]
  IC50 relative to cisplatin: lower IC50 than cisplatin

## C#Cc1cccc(Nc2ncnc3cc(OCCOC)c(OCCOC)cc23)c1 [Tarceva]
[3]; 1 Apr. 2015, on Tarceva
  Repeat PET CT: new right para-aortic node with high avidity
[3]; 12 Jul. 2011 to 5 Nov. 2013, Tarceva 150mg once daily from 2 Jun. 2011
  Repeat PET CTs: remission of the cancer

## CCCCc1nc(Cl)c(CO)n1Cc1ccc(-c2ccccc2-c2nn[nH]n2)cc1 [Losartan]
[1]; in vivo
  Common side effects: Cold or flu symptoms such as stuffy nose, sneezing, sore throat, fever, muscle cramps, pain in the legs or back, stomach pain, diarrhoea, headache, dizziness, tired feeling, sleep problems (insomnia)

## O=C(C=CC=Cc1ccc2c(c1)OCO2)N1CCCCC1 [piperine, 1-[5-(1,3-Benzodioxol-5-yl)-1-oxo-2,4-pentadienyl]piperidine]
[4]
  Effect on bioavailability of Curcumin: increases the bioavailability of Curcumin

## CC(=O)Oc1ccccc1C(=O)O [Aspirin, acetylsalicylic acid]
[1]; in vivo
  Common side effects: Increased bleeding tendencies, dyspepsia
  Rare side effects: Thrombocytopenia, agranulocytosis, aplastic anaemia, hypersensitivity reactions, angio-oedema, allergic oedema, anaphylactic reactions including shock
  Uncommon side effects: Urticaria, rhinitis, dyspnoea
[3]; 28 Jul. 2015, Aspirin 300mg once daily from 20 Jun. 2015
  Repeat PET CT: static appearance with low levels of activity remaining at both the primary and left lung metastasis sites

## CCOC(=O)[C@H](CCc1ccccc1)N[C@H]1CCCN2CCC[C@@H](C(=O)O)N2C1=O [Cilazapril, (4S,7S)-7-[[(2S)-1-Ethoxy-1-oxo-4-phenylbutan-2-yl]amino]-6-oxo-1,2,3,4,7,8,9,10-octahydropyridazino[1,2-a]diazepine-4-carboxylic acid]
[1]; in vivo
  Common side effects: Fatigue, hypotension, dyspepsia, nausea and other gastrointestinal disturbances, headache, rash and coughing
  Rare side effects: Skin rashes including erythema multiforme and toxic epidermal necrolysis may occur. Photosenstivity, alopecia and other hypersensitivity reactions
  Uncommon side effects: Tachycardia, palpitations and chest pain

## CN(C)C(=N)N=C(N)N [Metformin, N,N-dimethylimidodicarbonimidic diamide]
[1]; especially during the initial treatment period
  Mild gastrointestinal symptoms (diarrhoea, nausea, vomiting, loss of appetite), frequency: > 1/10
[1]; worded 'Common' within the Very Rare paragraph
  Metallic taste, frequency: 3%

## CC(C)NCC(O)COc1cccc2ccccc12 (racemic) [Propranolol, (RS)-1-(1-methylethylamino)-3-(1-naphthyloxy)propan-2-ol]
[1]; Uncommon (0.1-0.9%)
  Uncommon side effects: Gastrointestinal disturbance, such as nausea, vomiting, diarrhoea
Squamous Cell Carcinoma
  Adverse effects leading to dose reduction: feeling ‘weak in the legs’ and had two episodes of falls
